# Assays:
# [1] = target: Human plasma kallikrein (Homo sapiens (Human), UniProt P03952); test: Plasma Kallikrein Assay; assay type: biochemical; settings: purified Human plasma kallikrein 0.5 nM, substrate Acetyl-K-P-R-AFC, pH 7.4; read-out: PKal IC50
# Description: (§1) The effectiveness of a compound of the present invention as an inhibitor of plasma kallikrein can be determined using a relevant purified serine protease, and an appropriate synthetic substrate. The rate of hydrolysis of the chromogenic or fluorogenic substrate by the relevant serine protease was measured both in the absence and presence of compounds of the present invention. Assays were conducted at rt or at 37° C. […] A decrease in the rate of fluorescence change in the presence of inhibitor is indicative of enzyme inhibition. Such methods are known to one skilled in the art. The results of this assay are expressed as the half-maximal inhibitory concentrations (IC50), or the inhibitory constant, Ki.
# Plasma kallikrein determinations were made in 50 mM HEPES buffer at pH 7.4 containing 150 mM NaCl, 5 mM CaCl2, and 0.1% PEG 8000 (polyethylene glycol; Fisher Scientific). Determinations were made using purified Human plasma kallikrein at a final concentration of 0.5 nM (Enzyme Research Laboratories) and the synthetic substrate, Acetyl-K-P-R-AFC (Sigma #C6608) at a concentration of […].
# Activity assays were performed by diluting a stock solution of substrate at least tenfold to a final concentration ≤0.2 Km into a solution containing enzyme or enzyme equilibrated with inhibitor. Times required to achieve equilibration between enzyme and inhibitor were determined in control experiments. The reactions were performed under linear progress curve conditions and fluorescence increase measured at 405 Ex/510 Em nm. Values were converted to percent inhibition of the control reaction (after subtracting 100% Inhibition value). IC50 was determined by inflection point from a four parameter logistic curve fit. Ki was calculated using the Cheng Prusoff equation, Ki=IC50/(1+[S]/Km)).
# [2] = target: Coagulation factor XIa (Homo sapiens (Human), UniProt P03951); test: Factor XIa Assay; assay type: biochemical; settings: human factor XIa 0.04 nM, substrate GPR-AFC, 30 min pre-incubation at 25° C., pH 7.4; read-out: FXIa IC50
# Coagulation factor XIa, sequence (P03951 388-625 limits assumed): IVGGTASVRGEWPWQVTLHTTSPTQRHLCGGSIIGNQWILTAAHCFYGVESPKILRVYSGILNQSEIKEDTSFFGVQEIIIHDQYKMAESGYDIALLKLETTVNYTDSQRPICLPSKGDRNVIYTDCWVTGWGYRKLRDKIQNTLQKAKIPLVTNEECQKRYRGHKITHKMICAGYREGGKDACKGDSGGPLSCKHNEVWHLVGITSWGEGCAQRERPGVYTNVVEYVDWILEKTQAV
# Coagulation factor XIa, sequence (P03951 19-387 partner limits assumed): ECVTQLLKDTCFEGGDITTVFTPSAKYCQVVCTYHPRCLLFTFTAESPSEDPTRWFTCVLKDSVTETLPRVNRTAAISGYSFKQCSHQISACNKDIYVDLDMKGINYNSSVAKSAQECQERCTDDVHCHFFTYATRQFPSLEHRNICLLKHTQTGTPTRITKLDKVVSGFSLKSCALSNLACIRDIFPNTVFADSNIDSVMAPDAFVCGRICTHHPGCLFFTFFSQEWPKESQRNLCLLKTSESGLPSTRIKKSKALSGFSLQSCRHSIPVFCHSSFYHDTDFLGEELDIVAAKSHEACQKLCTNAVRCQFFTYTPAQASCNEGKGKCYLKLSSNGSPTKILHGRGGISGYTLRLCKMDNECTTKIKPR
# Description: as §1, with “Coagulation factor XIa” for “plasma kallikrein”
# Compounds were pre-incubated for 30 min at 25° C. with human (0.04 nM) factor XIa in 50 mM HEPES buffer with 150 mM sodium chloride, 5 mM calcium chloride, 0.1% PEG 8000, pH 7.4. factor XIa enzymatic activity was determined by addition of the substrate glycine-proline-arginine-7-amido-4-trifluoromethylcoumarin (GPR-AFC) and measurement of the fluorescence at 400/505 nm after a 60 min incubation at 25° C. The % inhibition for each data point was calculated from the data and analyzed using the log (inhibitor) vs. response four parameters equation to determine the half-maximal inhibitory concentrations (IC50). The IC50 were converted to equilibrium inhibitory constants (Ki) using the Cheng-Prusoff equation.
# Human plasma kallikrein, sequence (P03952 391-638 limits assumed): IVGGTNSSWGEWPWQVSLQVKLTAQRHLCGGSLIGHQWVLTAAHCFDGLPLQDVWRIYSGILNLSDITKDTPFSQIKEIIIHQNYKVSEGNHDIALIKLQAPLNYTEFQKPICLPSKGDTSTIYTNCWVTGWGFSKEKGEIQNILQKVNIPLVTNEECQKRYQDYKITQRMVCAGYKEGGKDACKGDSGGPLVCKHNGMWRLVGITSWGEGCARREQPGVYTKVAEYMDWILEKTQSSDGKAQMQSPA
# Human plasma kallikrein, sequence (P03952 20-390 partner limits assumed): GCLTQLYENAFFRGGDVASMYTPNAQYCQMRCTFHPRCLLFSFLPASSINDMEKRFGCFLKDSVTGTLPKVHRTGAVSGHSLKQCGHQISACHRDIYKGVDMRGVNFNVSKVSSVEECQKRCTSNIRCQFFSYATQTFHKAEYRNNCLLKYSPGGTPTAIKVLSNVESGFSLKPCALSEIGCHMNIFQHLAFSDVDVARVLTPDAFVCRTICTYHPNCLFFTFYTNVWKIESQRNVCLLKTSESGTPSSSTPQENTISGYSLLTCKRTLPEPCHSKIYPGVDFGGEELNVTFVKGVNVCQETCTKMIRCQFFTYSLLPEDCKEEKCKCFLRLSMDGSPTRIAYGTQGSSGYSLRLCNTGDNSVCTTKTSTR
Structure (SMILES),IC50 [1] [µM],IC50 [2] [µM]
"CC(C)N(C)Cc1ccc(CNC(=O)c2cnnc(N3CC[C@]4(C3)OC(=O)Nc3ccc(Cl)c(F)c34)c2)cc1 [Example 48, (S)-6-(6-Chloro-5-fluoro-2-oxo-1,2-dihydrospiro[benzo[d][1,3]oxazine-4,3′-pyrrolidin]-1′-yl)-N-(4-((isopropyl(methyl)amino)methyl)benzyl)pyridazine-4-carboxamide]",0.0059,10
"CCC(F)(F)NCc1ccc(CNC(=O)c2cnnc(N3CC[C@]4(C3)OC(=O)Nc3ccc(Cl)c(F)c34)c2)cc1 [Example 44, (S)-6-(6-Chloro-5-fluoro-2-oxo-1,2-dihydrospiro[benzo[d][1,3]oxazine-4,3′-pyrrolidin]-1′-yl)-N-(4-(((1,1-difluoropropyl)amino)methyl)benzyl)pyridazine-4-carboxamide]",0.0583,7.66
"O=C1Nc2ccc(Cl)c(F)c2[C@]2(CCN(c3cc(C(=O)NCc4ccc(N5CCC(F)(F)C5)nc4)cnn3)C2)O1 [Example 6, (S)-6-(6-Chloro-5-fluoro-2-oxo-1,2-dihydrospiro[benzo[d][1,3]oxazine-4,3′-pyrrolidin]-1′-yl)-N-((6-(3,3-difluoropyrrolidin-1-yl)pyridin-3-yl)methyl)pyridazine-4-carboxamide]",0.004,10
"CN1CCN(c2ccc(CNC(=O)c3cnnc(N4CC[C@]5(C4)OC(=O)Nc4ccc(Cl)c(F)c45)c3)cn2)CC1 [Example 28, (S)-6-(6-Chloro-5-fluoro-2-oxo-1,2-dihydrospiro[benzo[d][1,3]oxazine-4,3′-pyrrolidin]-1′-yl)-N-((6-(4-methylpiperazin-1-yl)pyridin-3-yl)methyl)pyridazine-4-carboxamide]",0.0019,10
"O=C1Nc2ccc(Cl)c(F)c2[C@]2(CCN(c3cncc(C(=O)NCc4ccc5c(n4)NCCC5)n3)C2)O1 [Example 31, (S)-6-(6-Chloro-5-fluoro-2-oxo-1,2-dihydrospiro[benzo[d][1,3]oxazine-4,3′-pyrrolidin]-1′-yl)-N-((5,6,7,8-tetrahydro-1,8-naphthyridin-2-yl)methyl)pyrazine-2-carboxamide]",0.0086,10
"O=C(Cc1ccc(Cn2ccccc2=O)cc1)Nc1cncc(N2CC[C@]3(C2)OC(=O)Nc2ccc(Cl)c(F)c23)c1 [Example 52, (S)-N-(5-(6-Chloro-5-fluoro-2-oxo-1,2-dihydrospiro[benzo[d][1,3]oxazine-4,3′-pyrrolidin]-1′-yl)pyridin-3-yl)-2-(4-((2-oxopyridin-1(2H)-yl)methyl)phenyl)acetamide]",0.019,10
"O=C1Nc2ccc(Cl)c(F)c2[C@]2(CCN(c3cc(C(=O)NCc4ccc(N5CCC(F)(F)C5)c(F)c4)cnn3)C2)O1 [Example 7, (S)-6-(6-Chloro-5-fluoro-2-oxo-1,2-dihydrospiro[benzo[d][1,3]oxazine-4,3′-pyrrolidin]-1′-yl)-N-(4-(3,3-difluoropyrrolidin-1-yl)-3-fluorobenzyl)pyridazine-4-carboxamide]",0.0335,10
"N#CCCN(Cc1ccc(CNC(=O)c2cnnc(N3CC[C@]4(C3)OC(=O)Nc3ccc(Cl)c(F)c34)c2)cc1)C1CC1 [Example 49, (S)-6-(6-Chloro-5-fluoro-2-oxo-1,2-dihydrospiro[benzo[d][1,3]oxazine-4,3′-pyrrolidin]-1′-yl)-N-(4-(((2-cyanoethyl)(cyclopropyl)amino)methyl)benzyl)pyridazine-4-carboxamide]",0.0089,10
"O=C1Nc2ccc(Cl)c(F)c2[C@]2(CCN(c3cncc4c3CCN(Cc3ccc(Cn5ccccc5=O)cc3)C4)C2)O1 [Example 51, (S)-6-Chloro-5-fluoro-1′-(7-(4-((2-oxopyridin-1(2H)-yl)methyl)benzyl)-5,6,7,8-tetrahydro-2,7-naphthyridin-4-yl)spiro[benzo[d][1,3]oxazine-4,3′-pyrrolidin]-2(1H)-one]",0.0459,10
"Cc1cnn(Cc2ccc(CNC(=O)c3ccnc(N4CC[C@]5(C4)OC(=O)Nc4ccc(Cl)c(F)c45)c3)cc2)c1 [Example 22, (S)-2-(6-Chloro-5-fluoro-2-oxo-1,2-dihydrospiro[benzo[d][1,3]oxazine-4,3′-pyrrolidin]-1′-yl)-N-(4-((4-methyl-1H-pyrazol-1-yl)methyl)benzyl)isonicotinamide]",0.0047,10
"O=C1Nc2ccc(Cl)c(F)c2[C@]2(CCN(c3cncc(C(=O)NCc4ccc(N5CCOCC5)nc4)n3)C2)O1 [Example 42, (S)-6-(6-Chloro-5-fluoro-2-oxo-1,2-dihydrospiro[benzo[d][1,3]oxazine-4,3′-pyrrolidin]-1′-yl)-N-((6-morpholinopyridin-3-yl)methyl)pyrazine-2-carboxamide]",0.0118,10
"C[C@H]1CCN(c2ccc(CNC(=O)c3cnnc(N4CC[C@]5(C4)OC(=O)Nc4ccc(Cl)c(F)c45)c3)cn2)C1 [Example 4, (S)-6-(6-Chloro-5-fluoro-2-oxo-1,2-dihydrospiro[benzo[d][1,3]oxazine-4,3′-pyrrolidin]-1′-yl)-N-((6-((S)-3-methylpyrrolidin-1-yl)pyridin-3-yl)methyl)pyridazine-4-carboxamide]",0.0012,7.44
"O=C1Nc2ccc(Cl)c(F)c2[C@]2(CCN(c3cc(C(=O)NCc4ccc(Cn5ccccc5=O)cc4)cnn3)C2)O1 [Example 17, (S)-6-(6-Chloro-5-fluoro-2-oxo-1,2-dihydrospiro[benzo[d][1,3]oxazine-4,3′-pyrrolidin]-1′-yl)-N-(4-((2-oxopyridin-1(2H)-yl)methyl)benzyl)pyridazine-4-carboxamide]",0.0163,10
"O=C1Nc2ccc(Cl)c(F)c2[C@]2(CCN(c3cncc(C(=O)NCc4ccc(Cn5ccccc5=O)nc4)c3)C2)O1 [Example 15, (S)-5-(6-Chloro-5-fluoro-2-oxo-1,2-dihydrospiro[benzo[d][1,3]oxazine-4,3′-pyrrolidin]-1′-yl)-N-((6-((2-oxopyridin-1(2H)-yl)methyl)pyridin-3-yl)methyl)nicotinamide]",0.0006,10
"O=C1Nc2ccc(Cl)c(F)c2[C@]2(CCN(c3cc(C(=O)NCc4ccc(N5CC[C@H](F)C5)nc4)cnn3)C2)O1 [Example 5, (S)-6-(6-Chloro-5-fluoro-2-oxo-1,2-dihydrospiro[benzo[d][1,3]oxazine-4,3′-pyrrolidin]-1′-yl)-N-((6-((S)-3-fluoropyrrolidin-1-yl)pyridin-3-yl)methyl)pyridazine-4-carboxamide]",0.003,5.65
"CN1CC(F)(F)CC1c1ccc(CNC(=O)c2cnnc(N3CC[C@]4(C3)OC(=O)Nc3ccc(Cl)c(F)c34)c2)cn1 (stereo in doubt) [Example 13, (S)-6-(6-Chloro-5-fluoro-2-oxo-1,2-dihydrospiro[benzo[d][1,3]oxazine-4,3′-pyrrolidin]-1′-yl)-N-((6-(4,4-difluoro-1-methylpyrrolidin-2-yl)pyridin-3-yl)methyl)pyridazine-4-carboxamide]",0.0816,10
"O=C1Nc2ccc(Cl)c(F)c2[C@]2(CCN(c3cncc(C(=O)NCc4ccc(Cn5ccccc5=O)nc4)n3)C2)O1 [Example 14, (S)-6-(6-Chloro-5-fluoro-2-oxo-1,2-dihydrospiro[benzo[d][1,3]oxazine-4,3′-pyrrolidin]-1′-yl)-N-((6-((2-oxopyridin-1(2H)-yl)methyl)pyridin-3-yl)methyl)pyrazine-2-carboxamide]",0.0016,10
"N#CC1(F)CN(Cc2ccc(CNC(=O)c3cnnc(N4CC[C@]5(C4)OC(=O)Nc4ccc(Cl)c(F)c45)c3)cc2)C1 [Example 50, (S)-6-(6-Chloro-5-fluoro-2-oxo-1,2-dihydrospiro[benzo[d][1,3]oxazine-4,3′-pyrrolidin]-1′-yl)-N-(4-((3-cyano-3-fluoroazetidin-1-yl)methyl)benzyl)pyridazine-4-carboxamide]",0.0266,10

# — patent publication US20240190892A1, “PLASMA KALLIKREIN INHIBITORS” (Merck Sharp & Dohme LLC, priority 2021, published 2024)
